In article PMC9797592, “TJ-M2010-5, a novel CNS drug candidate, attenuates acute cerebral ischemia-reperfusion injury through the MyD88/NF-κB and ERK pathway” (Frontiers in Pharmacology, 2022):
Like-named read-outs stand apart in the source and are kept apart here.

Assays:
CIRI mice = experiment: Flow cytometry of immune cells isolated from the ischemic brain hemisphere; format: in vivo, C57BL/6 mice; settings: TJ-5 injected at the time of reperfusion
Protocol: After the mice were anesthetized, 0.9% saline was used for transcardial perfusion. The right brain hemispheres were homogenized in a 6-well plate using 2 ml Hank’s balanced salt solution (HBSS, Solarbio) per well. Collagenase IV (1 mg/ml) was added to […]. The brain homogenate was filtered through a 70 μm cell strainer and centrifuged at 300 g for 5 min at 4°C. Then, 2 ml of 30% Percoll (Sigma) were added to resuspend the brain cell precipitate, and the resuspended cells were slowly added to a 15 ml centrifuge tube containing 3 ml of 70% Percoll. The intermediate layer cells were analyzed by flow cytometry after density-gradient centrifugation.
Approximately 5 × 10^5 cells were suspended in 200 μL HBSS, and anti-mouse CD16/CD32 (5 ng/μL) was used to block Fc receptor binding. The cells were stained with allophycocyanin-conjugated CD45 antibody (1 ng/μL), FITC-conjugated CD11b antibody (1 ng/μL), and phycoerythrin-conjugated Ly6G antibody (1 ng/μL) and incubated in the dark at 4°C for 30 min. Finally, the cells were washed with HBSS buffer, resuspended in 200 μL of HBSS, and analyzed using a flow cytometer (BD FACSCalibur).

[1] = Drug concentration in serum and tissues by LC-MS, pharmacokinetics and BBB permeability; format: in vivo, mice; settings: for concentration in CL brain: contralateral non-ischemic hemisphere; for concentration in CL brain / AUC(0-t) / concentration at 5 min / concentration at 10 min / concentration at 30 min / concentration at 1 h / concentration at 2 h / concentration at 6 h: mean ± SD; for Kp / half-life / AUC(0-t) / concentration at 5 min / concentration at 10 min / concentration at 30 min / concentration at 1 h / concentration at 2 h / concentration at 6 h: C57BL/6, mouse; for Kp / half-life / AUC(0-t): iv; for Kp: mean AUC0–6 h ratio, read-out: Kp (brain-serum ratio, AUCbrain/AUCserum); for half-life: read-out: t1/2 (elimination half-life) (converted); for AUC(0-t): read-out: AUC0–6 h; for concentration at 5 min / concentration at 10 min / concentration at 30 min / concentration at 1 h / concentration at 2 h / concentration at 6 h: intravenous
Protocol: The mice were intravenously injected with 15 mg/kg TJ-5 at the time of reperfusion 1 h after MCAO or Sham. The mice were then anesthetized at 5 min, 10 min, 30 min, 1 h, and 2 h, or 6 h post-dosing. Blood was collected to prepare serum samples, and the ipsilateral ischemic hemisphere (IL brain), contralateral non-ischemic hemisphere (CL brain), heart, and liver samples were obtained after transcardial perfusion with 0.9% saline. Liquid chromatography-mass spectrometry (LC-MS) was performed to determine the concentration of TJ-5 in the samples. The time-concentration curve, area under the curve (AUC), and pharmacokinetic (PK) parameters of TJ-5 were analyzed using the PKslover 2.0 PK software ([Zhang et al., 2010]). BBB permeability was evaluated using the brain-to-serum partition coefficient (Kp), which was calculated as AUCbrain/AUCserum.

BV-2 cells = experiment: CCK-8 cell viability assay, BV-2; format: cell-based; settings: concentrations below 20 μM, 24 h
Protocol: (§1) BV-2 and SH-SY5Y cells were seeded in a 96-well plate at a density of 1 × 10^4 cells/well. Twenty-4 hours later, different concentrations of TJ-5 (0, 1, 5, 10, 20, and 30 μM) were added and co-cultured with cells for 24 h. Cell Counting Kit-8 (CCK8, Sigma, Shanghai, China) was used to measure cell viability. Experiments were conducted according to the manufacturer’s instructions. After incubation at 37°C for 2 h, absorbance was measured at 450 nm using a microplate reader (Synergy 2, BioTek Instruments, United States).

SH-SY5Y cells = experiment: CCK-8 cell viability assay, SH-SY5Y; format: cell-based
Protocol: as §1

[2] = system: LPS-stimulated BV-2 cells; experiment: LPS-stimulated BV-2 cell model: morphology and TNF-α/IL-6 ELISA; format: cell-based
Protocol: BV-2 microglial and SH-SY5Y cells were cultured as previously described ([Zhao et al., 2020]). A lipopolysaccharide (LPS)-stimulated BV-2 cell model was established to mimic severe neuroinflammation induced by multiple inflammatory mediators after reperfusion ([Li et al., 2021]). BV-2 cells were pretreated with different concentrations of TJ-5 for 2 h before LPS (1 μg/ml) stimulation (#L2880, Sigma, United States). Twenty-4 hours later, BV-2 cells and the culture supernatants were harvested for subsequent experiments. In addition, ST2825, a recognized MyD88 inhibitor, was used as positive control group.
Enzyme-linked immunosorbent assay (ELISA) kits were used to detect the levels of TNF-α, IL-1β, and IL-6 in the brain. Brain tissue was homogenized in 1 ml of phosphate-buffered saline using a tissue homogenizer. Then, the homogenates were centrifuged at 14,000 g for 10 min at 4 °C. The supernatant was immediately transferred for measurement following the manufacturer’s instructions. BV-2 cells were incubated with different treatments and the supernatants were collected and measured.

[3] = system: OGD/R-induced SH-SY5Y cells; experiment: OGD/R-induced SH-SY5Y cell apoptosis, Annexin V/PI flow cytometry; format: cell-based; settings: OGD 4 h / R 24 h with TJ-5
Protocol: The oxygen glucose deprivation/reoxygenation (OGD/R)-induced SH-SY5Y cell model was established to mimic CIRI as previously described ([Dong et al., 2021]). Briefly, SH-SY5Y cells were cultured in glucose-free Dulbecco’s Modified Eagle Medium, and the flasks were placed inside an incubator (1% O2, 94% N2, 5% CO2) for 4 h. OGD cells were then incubated in standard culture conditions with or without TJ-5 for 24 h of reperfusion. OGD 4 h/R 24 h SH-SY5Y cells were harvested, and the Annexin V/PI Apoptosis Kit (Multi- Science Biotech, China) was used to detect apoptosis by flow cytometry.

## O=C(CCN1CCN(Cc2ccccc2)CC1)Nc1nc(-c2ccccc2)cs1 [TJ-5]
CIRI mice
  number of brain-infiltrating CD11b+CD45hi myeloid cells: reduced the number
  proportion of inactive microglia (CD11b+CD45int): increased the proportion
[1]; 15 mg/kg i.v. at reperfusion 1 h after MCAO, 5 min
  concentration in CL brain: 5877.53 ± 989.32 ng/g
[1]; 15 mg/kg i.v. at reperfusion 1 h after MCAO, 10 min
  concentration in CL brain: 5364.30 ± 749.83 ng/g
[1]; 15 mg/kg i.v. at reperfusion 1 h after MCAO, 30 min
  concentration in CL brain: 2480.87 ± 985.41 ng/g
[1]; 15 mg/kg i.v. at reperfusion 1 h after MCAO, 1 h
  concentration in CL brain: 1662.40 ± 117.03 ng/g
[1]; 15 mg/kg i.v. at reperfusion 1 h after MCAO, 2 h
  concentration in CL brain: 347.65 ± 55.25 ng/g
[1]; 15 mg/kg i.v. at reperfusion 1 h after MCAO, 6 h
  concentration in CL brain: 10.43 ± 5.69 ng/g
[1]; 15 mg/kg i.v., brain vs serum concentrations
  BBB permeability: good BBB permeability
[1]; CL brain (contralateral non-ischemic hemisphere) / serum, 15 mg/kg i.v., CL brain
  Kp: 5.21
[1]; IL brain (ipsilateral ischemic hemisphere) / serum, 15 mg/kg i.v., IL brain
  Kp: 5.58
[1]; brain (Sham) / serum, 15 mg/kg i.v., Sham brain
  Kp: 4.98
[1]; contralateral non-ischemic hemisphere (CL brain), 15 mg/kg i.v., CL brain
  half-life: 24.6 min
[1]; contralateral non-ischemic hemisphere (CL brain), 15 mg/kg i.v., CL brain, tissue density assumed 1 g/ml
  AUC(0-t): 4790 ± 353 ng·h/mL
[1]; 15 mg/kg i.v., Sham brain, 5 min, read-out: concentration in Sham brain
  concentration at 5 min: 6230 ± 436 ng/g
[1]; 15 mg/kg i.v., Sham brain, 10 min, read-out: concentration in Sham brain
  concentration at 10 min: 4900 ± 53.9 ng/g
[1]; 15 mg/kg i.v., Sham brain, 30 min, read-out: concentration in Sham brain
  concentration at 30 min: 2730 ± 256 ng/g
[1]; 15 mg/kg i.v., Sham brain, 1 h, read-out: concentration in Sham brain
  concentration at 1 h: 1580 ± 469 ng/g
[1]; 15 mg/kg i.v., Sham brain, 2 h, read-out: concentration in Sham brain
  concentration at 2 h: 268 ± 6.25 ng/g
[1]; 15 mg/kg i.v., Sham brain, 6 h, read-out: concentration in Sham brain
  concentration at 6 h: 18.7 ± 11 ng/g
[1]; 15 mg/kg i.v., heart, 5 min, read-out: concentration in heart
  concentration at 5 min: 5910 ± 825 ng/g
[1]; 15 mg/kg i.v., heart, 10 min, read-out: concentration in heart
  concentration at 10 min: 4590 ± 352 ng/g
[1]; 15 mg/kg i.v., heart, 30 min, read-out: concentration in heart
  concentration at 30 min: 4730 ± 2060 ng/g
[1]; 15 mg/kg i.v., heart, 1 h, read-out: concentration in heart
  concentration at 1 h: 1660 ± 335 ng/g
[1]; 15 mg/kg i.v., heart, 2 h, read-out: concentration in heart
  concentration at 2 h: 684 ± 199 ng/g
[1]; 15 mg/kg i.v., heart, 6 h, read-out: concentration in heart
  concentration at 6 h: 51.6 ± 11.9 ng/g
[1]; 15 mg/kg i.v., liver, 5 min, read-out: concentration in liver
  concentration at 5 min: 7160 ± 594 ng/g
[1]; 15 mg/kg i.v., liver, 10 min, read-out: concentration in liver
  concentration at 10 min: 5890 ± 528 ng/g
[1]; 15 mg/kg i.v., liver, 30 min, read-out: concentration in liver
  concentration at 30 min: 4710 ± 1130 ng/g
[1]; 15 mg/kg i.v., liver, 1 h, read-out: concentration in liver
  concentration at 1 h: 2960 ± 1030 ng/g
[1]; 15 mg/kg i.v., liver, 2 h, read-out: concentration in liver
  concentration at 2 h: 750 ± 249 ng/g
[1]; 15 mg/kg i.v., liver, 6 h, read-out: concentration in liver
  concentration at 6 h: 170 ± 36.1 ng/g
[1]; 15 mg/kg i.v., serum, 5 min, read-out: concentration in serum
  concentration at 5 min: 1190 ± 209 ng/mL
[1]; 15 mg/kg i.v., serum, 10 min, read-out: concentration in serum
  concentration at 10 min: 980 ± 203 ng/mL
[1]; 15 mg/kg i.v., serum, 30 min, read-out: concentration in serum
  concentration at 30 min: 472 ± 151 ng/mL
[1]; 15 mg/kg i.v., serum, 1 h, read-out: concentration in serum
  concentration at 1 h: 285 ± 29.1 ng/mL
[1]; 15 mg/kg i.v., serum, 2 h, read-out: concentration in serum
  concentration at 2 h: 79.6 ± 26.9 ng/mL
[1]; 15 mg/kg i.v., serum, 6 h, read-out: concentration in serum
  concentration at 6 h: 2.08 ± 1.12 ng/mL
[1]; ipsilateral ischemic hemisphere (IL brain), 15 mg/kg i.v. at reperfusion 1 h after MCAO, ipsilateral ischemic hemisphere, 5 min, read-out: concentration in IL brain
  concentration at 5 min: 6650 ± 591 ng/g
[1]; ipsilateral ischemic hemisphere (IL brain), 15 mg/kg i.v. at reperfusion 1 h after MCAO, ipsilateral ischemic hemisphere, 10 min, read-out: concentration in IL brain
  concentration at 10 min: 5799 ± 29.8 ng/g
[1]; ipsilateral ischemic hemisphere (IL brain), 15 mg/kg i.v. at reperfusion 1 h after MCAO, ipsilateral ischemic hemisphere, 30 min, read-out: concentration in IL brain
  concentration at 30 min: 2890 ± 611 ng/g
[1]; ipsilateral ischemic hemisphere (IL brain), 15 mg/kg i.v. at reperfusion 1 h after MCAO, ipsilateral ischemic hemisphere, 1 h, read-out: concentration in IL brain
  concentration at 1 h: 1750 ± 164 ng/g
[1]; ipsilateral ischemic hemisphere (IL brain), 15 mg/kg i.v. at reperfusion 1 h after MCAO, ipsilateral ischemic hemisphere, 2 h, read-out: concentration in IL brain
  concentration at 2 h: 327 ± 57.2 ng/g
[1]; ipsilateral ischemic hemisphere (IL brain), 15 mg/kg i.v. at reperfusion 1 h after MCAO, ipsilateral ischemic hemisphere, 6 h, read-out: concentration in IL brain
  concentration at 6 h: 11.7 ± 6.43 ng/g
[1]; ipsilateral ischemic hemisphere (IL brain), 15 mg/kg i.v., IL brain
  half-life: 24.6 min
[1]; ipsilateral ischemic hemisphere (IL brain), 15 mg/kg i.v., IL brain, tissue density assumed 1 g/ml
  AUC(0-t): 5140 ± 239 ng·h/mL
[1]; 15 mg/kg i.v., Sham brain
  half-life: 39 min
[1]; 15 mg/kg i.v., Sham brain, tissue density assumed 1 g/ml
  AUC(0-t): 4580 ± 276 ng·h/mL
[1]; 15 mg/kg i.v., heart
  half-life: 40.2 min
[1]; 15 mg/kg i.v., heart, tissue density assumed 1 g/ml
  AUC(0-t): 6480 ± 769 ng·h/mL
[1]; 15 mg/kg i.v., liver
  half-life: 42 min
[1]; 15 mg/kg i.v., liver, tissue density assumed 1 g/ml
  AUC(0-t): 8240 ± 852 ng·h/mL
[1]; 15 mg/kg i.v., serum
  AUC(0-t): 919 ± 82.2 ng·h/mL
  half-life: 22.8 min
[1]; single intravenous injection of 15 mg/kg
  time effective concentration is maintained: about 6 h
BV-2 cells
  viability of BV-2 cells: did not affect the viability
SH-SY5Y cells; SH-SY5Y cells
  neurotoxicity: no neurotoxicity
SH-SY5Y cells; concentrations below 20 μM, 24 h, CCK-8
  viability of SH-SY5Y cells: did not affect the viability
[2]; LPS-stimulated BV-2 cells, pretreatment 2 h, LPS 24 h, ELISA
  levels of TNF-α and IL-6 in supernatants: markedly reduced
[2]; pretreatment 2 h before LPS 1 μg/ml, 24 h
  activation (morphology) of LPS-stimulated BV-2 cells: inhibited
[3]
  apoptosis of OGD/R-induced SH-SY5Y cells: significantly reduced apoptosis
